# Target: Aldose reductase (Oryctolagus cuniculus)
# Assay: Tested in vitro for inhibitory activity against partially purified aldose reductase from male rabbit lens
row,SMILES,IC50 [nM]
1,CN1C(=O)Nc2cc3c(cc2C12NC(=O)NC2=O)OCO3 (configuration not stated),1800
2,CN1C(=O)N(C)C2(C1=O)c1ccccc1NC(=O)N2C (configuration not stated),> 10000
3,CN1C(=O)NC2(C1=O)c1ccccc1NC(=O)N2C (configuration not stated),> 10000
4,CN1C(=O)Nc2ccc(OC(=O)c3ccccc3)cc2C12NC(=O)NC2=O (configuration not stated),2000
5,CN1C(=O)Nc2ccccc2C12NC(=S)NC2=O (configuration not stated),> 10000
6,CN1C(=O)Nc2c([N+](=O)[O-])cc(Cl)cc2C12NC(=O)NC2=O (configuration not stated),46
7,CN1C(=O)Nc2ccccc2C12SC(N)=NC2=O (configuration not stated),> 10000
8,CN1C(=O)Nc2c(cc(F)c(F)c2F)C12NC(=O)NC2=O (configuration not stated),140
9,CN1C(=O)NC(=O)C12c1ccccc1NC(=O)N2C (configuration not stated),> 10000
10,O=C1NC(=O)C2(N1)c1ccccc1NC(=O)N2Cc1ccccc1 (configuration not stated),> 10000
11,CN1C(=O)Nc2cc(Cl)c([N+](=O)[O-])cc2C12NC(=O)NC2=O (configuration not stated),120
12,CCCCN1C(=O)Nc2ccccc2C12NC(=O)NC2=O (configuration not stated),> 10000
13,CN1C(=O)Nc2cc(N3CCOCC3)c([N+](=O)[O-])cc2C12NC(=O)NC2=O (configuration not stated),430
14,CCN1C(=O)Nc2ccccc2C12NC(=O)NC2=O (configuration not stated),1000
15,O=C1NC(=O)C2(N1)NC(=O)Nc1ccccc12 (configuration not stated),1400

# Now from value to molecule:
row,IC50 [nM],SMILES
1,22,CN1C(=O)Nc2ccc(Cl)cc2[C@@]12NC(=O)NC2=O
2,360,COc1ccc2c(c1)NC(=O)N(C)C21NC(=O)NC1=O (configuration not stated)
3,> 10000,O=C1NC(=O)C2(N1)c1ccccc1NC(=O)N2O (configuration not stated)
4,400,Cc1cccc2c1C1(NC(=O)NC1=O)N(C)C(=O)N2 (configuration not stated)
5,860,CN1C(=O)Nc2cccc(Cl)c2C12NC(=O)NC2=O (configuration not stated)
6,73,CN1C(=O)Nc2ccc([N+](=O)[O-])cc2C12NC(=O)NC2=O (configuration not stated)
7,> 10000,CN1C(=O)Nc2ccc(N)cc2C12NC(=O)NC2=O (configuration not stated)
8,220,Cc1ccc2c(c1)NC(=O)N(C)C21NC(=O)NC1=O (configuration not stated)
9,56,CN1C(=O)Nc2ccc(Cl)cc2C12NC(=O)NC2=O (configuration not stated)
10,74,CN1C(=O)Nc2cc(Cl)c(Cl)cc2C12NC(=O)NC2=O (configuration not stated)
11,770,CN1C(=O)Nc2ccc(Cl)cc2[C@]12NC(=O)NC2=O
12,94,CN1C(=O)Nc2cc(Cl)ccc2C12NC(=O)NC2=O (configuration not stated)
13,> 10000,CN1C(=O)Nc2ccc(O)cc2C12NC(=O)NC2=O (configuration not stated)
14,4000,NN1C(=O)Nc2ccccc2C12NC(=O)NC2=O (configuration not stated)
15,> 10000,CC(C)N1C(=O)Nc2ccccc2C12NC(=O)NC2=O (configuration not stated)
16,52,CN1C(=O)Nc2ccc(Br)cc2C12NC(=O)NC2=O (configuration not stated)
17,30,Cc1cc2c(cc1Cl)C1(NC(=O)NC1=O)N(C)C(=O)N2 (configuration not stated)
